Patent US8688416B2, “Methods and systems for improved pharmaceutical intervention in coagulation control” (priority 2008, dated 2014)
Values joined by “and” are separate entries in the source; they are usually repeats but may differ in a detail not shown here. Equal entries are not always repeated.

What was measured:
INR [1] = assay: Fit of dose-response equation (4)/(5) for Vitamin K intake to INR of anti-coagulated patients (published data); assay type: in vivo
From the text: More specifically, the reciprocal of INR will be dose-responsive to Vitamin K in the normal manner, as discussed above, so that Logit (1/INR) will be linear in log (K), where K is the effective total intake of Vitamin K in μg/day. Data on the total intake of Vitamin K are very rarely available in the clinic, but it is practicable to investigate departures from the usual amount when occasion arises, such as when a supplement of Vitamin K is prescribed. Therefore log (K) is expressed as the sum of two terms: log (K)=log (K0)+log (K/K0), where K0 is the average daily intake of Vitamin K.
The dose-response curve described here includes the effect of exogenous Vitamin K by considering the parameter a in equation (1) to be the sum of two terms, a=a′+c log (K0), where a′ is another constant and c is a patient-specific parameter, and by adding a term for the effect of departures from K0. Thus, it follows that Log (INR−1)=bw−a−c log (K/K0) (4) […]
The parameters of this dose-response curve for Vitamin K are derived primarily from published data based on use of synthetic Vitamin K tablets. In such published studies, the average daily intake of Vitamin K was measured in the diet of the subjects at 55 μg. […] The dose was increased each Monday before INR was measured; thus, the INR for Tuesday was one day after increase, etc.

INR [2] = test system: INR
From the text: To simplify, a=y log (PCAo)−x, which expresses the fixed contribution of the patient's own clotting factor system; this will result in equation (1) Log (INR−1)=bw−a (1)
Consequently, the patient-specific parameters are now a and b. […] In the absence of further information, a is assumed to be a constant characteristic of the patient, but as will be shown below, also includes the effects of the intake of Vitamin K on the patient's INR, whose effects can be represented by adding another term (see below). It should be pointed out that Equation (1) is a proposition, not a definition, because it specifies what value of the INR will be observed, given values for a, b and w. Furthermore, it should be appreciated that the value predicted for a particular patient thus depends only on w regardless of when in the treatment sequence it occurred. […] These two parameters relating INR to effective dose w can be seen as the scale factor for the dose a and the steepness of the dose response b.
In the present invention, an empirical approximation is used to predict the time course of the patient's response to a change in a dose. […] In the case of a patient taking the same dose for an extended time, the “effective dose” equals that regular dose after the stabilization time. The “effective dose” only needs to be calculated when there is a change in dosage and during the stabilization period.
The “effective dose” is calculated by convolving the actual dose with a function of time since the dose was taken. This function represents the effect of a single dose on the INR through time. […] It is assumed that the weighting for a dose taken just once is a triangular function with a slope of k from the time the dose is taken to the time of its maximum effect on INR, followed by a tailing off with a slope of −k. The resulting function for a maintained daily dose is an S-shaped growth function, consisting of two quarter-parabolae, depicted in FIG. 5. […] Here, the half-maximal delay is one unit of time at which the dose has half its maximum effect. When the patient stops taking the drug, the decay is reversed.
The “optimum” dose is the dose expected to yield an INR at the mid-point of the therapeutic range. The effective doses were calculated using a half-maximal delay of 6.4, 6.4 and 9.0 days respectively.
The parameter tmax½ used for this convolution is the time to attain the half-maximal effect for a maintained dose, which is also the time to attain the maximum effect of a single dose.

[3] = patients studied, all taking warfarin, w = daily dosage in milligrams, natural log

Compound: CC1=C(C/C=C(\C)CCC[C@H](C)CCC[C@H](C)CCCC(C)C)C(=O)c2ccccc2C1=O [Vitamin K1]
- half-time to stabilization (INR [1]; effect on INR of effective total daily intake): about 1.6 days

Compound: CC(=O)CC(c1ccccc1)c1c(O)c2ccccc2oc1=O (centres unmarked) [warfarin]
- time until the INR has stabilized on a constant dose (INR [2]; constant dose): 13 days and 14 days
- mean value of a in equation (1), Log (INR-1)=bw-a (INR [2]; [3]): about 2.8
- mean value of b in equation (1) (sensitivity, slope of the dose-response curve) (INR [2]; [3]): about 0.54

Compound: Vitamin K
- average value of patient-specific parameter c in equation (5) (INR [1]; derived from the literature data, K in μg/day, natural log): 0.43
